Experimental data from patent publication US5500429A, “Calcium uptake inhibitors” (Merrell Pharmaceuticals Inc., priority 1993, dated 1996).
Like-named read-outs stand apart in the source and are kept apart here.

What was measured:
[1] = system: Lewis rats, adjuvant-induced arthritis; test: Lewis Rat Adjuvant-Induced Arthritis Model; assay type: in vivo
Experimental: Female inbred Lewis rats (Charles River) weighing 150-200 grams were injected intradermally in the tail with either 0.1 mL of Mycobacterium butyricum (Difco) in mineral oil (5 mg.mL) or with mineral oil alone. Starting on the day of innoculation and for 32 days, paw edema was determined for right and left hind limbs using the mercury displacemnt method. From day 1 some animals were treated with 30 mg/Kg p.o. MDL 29,355 once daily.

[2] = system: Sprague Dawley rats, carrageenin-induced paw edema; test: Carrageenin Induced Rat Paw Edema; assay type: in vivo; conditions: i.p, one hour prior to carrageenin; read 3 hours after
Experimental: Charles River male Sprague Dawley rats weighing 90 to 100 grams were used. Inflammation of the left hind paw was induced by a 1% carrageenin solution (0.05 cc), injected into the plantar surface of the paw. The contralateral paw was injected with an equal volume of saline. Drugs were administered orally or i.p. (1 cc/100 grams) one hour prior to paw injection. Three hours following the carrageenin injection the difference in volume of the control and inflamed paw was measured. Each paw was immersed in a well of mercury and the volume of mercury displaced was recorded. Paws were uniformly dipped into the mercury up to the beginning of the hairline. A venous pressure transducer, coupled to an oscillographic recorder, was employed to measure the small volumes of mercury displaced. Each group measurement consists of the average of four rats, each with three separate measurements.

[3] = system: Sprague-Dawley rats, Arthus reaction; test: Arthus Reaction in Rat Skin; assay type: in vivo
Experimental: Anesthetized male Sprague-Dawley rats (Charles River) weighing 200-250 grams received 100 mg/Kg i.v. sterile bovine serum albumin (BSA) solution (5 mg/mL). immediately after injection, the animals received an intradermal injection of 100 ug of rabbit anit-BSA in saline. This produces an immune complex mediated inflammation (Arthus reaction) where immune complexes fix complement releasing factors that attract neutrophils. The neutrophils then are activated causing local tissue damage as manifested in a hemorrhagic spot. The extent of the reaction is reflected in the size of the spot as measured by image analysis techniques.

Rat PMNL = test: Superoxide Anion (SOA) Production by rat PMNL; assay type: cell-based; conditions: for inhibition of superoxide anion production: PMA and OZ induced; for inhibition at 1 µM / inhibition at 3 µM / inhibition at 10 µM / inhibition at 30 µM / inhibition at 100 µM / inhibition at 300 µM: Rattus norvegicus, PMNL
Experimental: Rat PMNL were obtained from exudates resulting from peritoneal injection of 6 mL of 8% sodium caseinate. Eighteen hours after injection rats were killed by carbon dioxide inhalation and the peritoneal cavity lavaged with Hank's balanced salt solution (HBSS). After concentration of the PMNL by centrifugation, contaminating erythrocytes were removed by hypotonic lysis. The PMNL were then washed twice by centrifugation (400×g for 10 minutes) and resuspended in HBSS. Cell viability was greater than 90% by Trypan Blue exclusion and greater than 90% of the cells were PMNL by Wright-Giemsa stain.
Aliquots (50 μl) of a rat PMNL suspension (2×10^7 cells/mL in HBSS) were incubated with 50 μl of HBSS containing vehicle (0.3% DMSO) or compound for 30 minutes at 37° C. as above. One hundred microliters of buffer containing 5.98 mg/mL of cytochrome C (Sigma Type III) and 0.1 mg/mL catalase, plus the compounds where appropriate, were then added to each sample. A blank for spectrophotometric measurement, containing unstimulated cells in the presence of cytochrome C, catalase and SOD, was also prepared. To activate the PMNL, 75 μl of PMA or OZ were added to achieve the final concentration of cell activator (plus vehicle or inhibitor as described above for MPO release) and the cells further incubated at 37° C. for 60 minutes. The activation was terminated by centrifugation at 600×g for 5 minutes at 4° C. Aliquots (200 μl) of supernatant were then transferred to a second, flat-well microtiter plate and measured spectrophotometrically at 550 nm. […]

[4] = PMA, read-out: PMA/SOA inhibition
[5] = opsonized zymosan, read-out: OZ/SOA inhibition

| SMILES | paw swelling reduction, day 20 ([1]; 30 mg/Kg p.o. once daily from day 1, day 20) | paw swelling inhibited, day 32 ([1]; 30 mg/Kg p.o. once daily from day 1, day 32, not significantly different from untreated controls) | animals never displaying adjuvant arthritis ([1]; 30 mg/Kg p.o. once daily, all control animals displayed arthritis) | % Inhibition of carrageenin-induced paw edema [2] | hemorrhagic spot size reduction ([3]; i.p. 100 mg/Kg, 30 minutes before Arthus reaction) | hemorrhagic spot size reduction ([3]; intradermal 100ug with the antibody) | inhibition of superoxide anion production (Rat PMNL) | inhibition at 1 µM (Rat PMNL; [4]) | inhibition at 3 µM (Rat PMNL; [4]) | inhibition at 10 µM (Rat PMNL; [4]) | inhibition at 30 µM (Rat PMNL; [4]) | inhibition at 100 µM (Rat PMNL; [4]) | inhibition at 300 µM (Rat PMNL; [4]) | inhibition at 1 µM (Rat PMNL; [5]) | inhibition at 3 µM (Rat PMNL; [5]) | inhibition at 10 µM (Rat PMNL; [5]) | inhibition at 30 µM (Rat PMNL; [5]) | inhibition at 100 µM (Rat PMNL; [5]) | inhibition at 300 µM (Rat PMNL; [5]) |
| --- | --- | --- | --- | --- | --- | --- | --- | --- | --- | --- | --- | --- | --- | --- | --- | --- | --- | --- | --- |
| O=C(C=Cc1ccncc1)c1ccccc1 [MDL 29,355, 1-phenyl-3-(4-pyridinyl)-2-propene-1-one] | 36.4% ±16.6% | 30.9%±22.4% | one of the 3 treated animals never displayed adjuvant arthritis | 51.4 ± 8.5% | 55.0%±16.8% | 41.7% ±12.5% | inhibited in a dose dependent fashion | -29.5% | -30.2% | -20.7% | -12.3% | 21.1% | 104% | -10.7% | -12.6% | 2.5% | 27.5% | 67.6% | 102% |
| CN(C)c1ccc(C(=O)C=Cc2ccncc2)cc1 [MDL 101,240, 1-(4-dimethylaminophenyl)-3-(4-pyridinyl)-2-propene-1-one] |  |  |  |  |  |  | inhibited in a dose dependent fashion | -7.2% | 4.7% | 5.9% | 34.5% | 81.5% |  | -7.8% | 2.5% | 21.3% | 66.3% | 85% |  |
